Earlier results on one substance are cited in paper PMC7179723, “Self-Assembly of Minimal Peptoid Sequences” (ACS Macro Letters, 2020).

For the data set the following is noted: assembly requires dilution from an organic solution; literature statement. The source says:
Control of self-assembly using sequence-specific polymers such as peptides and their mimics is a powerful approach to generating functional nanomaterials. Very short self-assembling peptides and their mimics (e.g., ≤ 5 residues) are of special interest since they are more easily scalable and they lead to insight into assembly requirements.[1] Their discovery is nontrivial since assembly propensity (e.g., hydrophobic interactions and hydrogen bonding) and favorable solvent (water) interactions must be balanced among just a few residues.[1]−[3] […] Alternatively, lamellar nanostructures were observed when the dipeptoid was precipitated in water from an ACN solution.

As for diphenylalanine [FF], the solubility in water entry is recorded as “not directly soluble in water”.
